# Laboratory results taken from patent publication US20050215529A1, “Method of treating oxidative stress-associated conditions with isopentenyl diphosphate” (THE REGENTS OF THE UNIVERSITY OF MICHIGAN, priority 2004, published 2005).
# Columns and labels:
# [1] = tested on: human fibroblastoid M1 cells; assay: Comet assay, inhibition of 2CA- or IPP-mediated DNA damage protection by antagonists/inhibitors; assay type: cell-based; conditions: for effect on 2CA-mediated DNA damage protection / effect on IPP-mediated DNA damage protection: M1 cells pre-incubated with antagonist/inhibitor (lactacystin 5 μM, lovastatin 5 μM, GGTI-2147 0.2 μM, FTI-277 1 μM; others various concentrations), then 100 μM H2O2; for effect on 2CA-mediated DNA damage protection: then 2CA; for IC50: AR antagonists, M1 cells, 100 μM H2O2, Comet assay, read-out: IC50 (pM), block of 2CA-mediated DNA damage protection; for effect on IPP-mediated DNA damage protection: then IPP
# Description: (§1) A single-cell gel electrophoresis (SCGE) assay, known as the “Comer” assay was performed to detect/quantify DNA damage by identifying DNA-strand breakage in individual cells, for example. The assay was performed using a kit commercially-available from Trevigen, Inc., of Gaithersburg, Md., as “CometAssay™.” See P. J. McCarthy et al. (1997) Mutagenesis 12:209-214; A. R. Collins et al. (2001) Biochem. Soc. Trans. 29:337-341. Sub-confluent cells were washed with phosphate buffered saline (PBS) and detached from the tissue culture flasks using a 0.05% trypsin solution. After centrifugation, the cells were washed and re-suspended in serum-free DMEM medium. The cells were divided into Eppendorf tubes (1.5 ml), and centrifuged at 2500 rotations per minutes (rpm) for ten minutes. Signal-modulating agents were added and samples were kept in a 37° C. incubator for thirty minutes. In some experiments, the cells were pre-incubated with various inhibitors for the indicated times at 37° C. At the end of the incubation period with signal-modulating chemicals, the cells were washed with PBS and treated with 100 μM H2O2 in 0.5 ml PBS on ice for twenty minutes. Following the hydrogen peroxide treatment, the cells were immediately microfuged for fifteen seconds. The cells were twice washed with cold PBS, and re-suspended at 1.0×10^5 cells/ml in ice-cold PBS. Five microliter cell suspension were each mixed with 50 μl molten LMAgarose and, thereafter, the mixtures were placed onto slides (CometSlide™).
# (§2) The slides were placed at 4° C. in the dark for ten minutes and subsequently immersed in pre-chilled Lysis Solution at 4° C. for an additional thirty minutes. Following this incubation, excess buffer was tapped off from the slides. Subsequently, the slides were placed in a 50 ml Coplin jar containing alkali buffer for thirty minutes at room temperature in the dark and then immersed in 50 ml of TBE buffer for five minutes. The slides were then placed flat onto a gel tray submerged in TBE buffer in a horizontal electrophoresis apparatus, and aligned equidistant from the electrodes. Electrophoresis was performed at one volt per centimeter (cm) for ten minutes. Following this electrophoresis, the samples were fixed in 100% methanol for five minutes and 100% ethanol for five minutes. After drying, 50 μl of diluted SYBR Green Concentrate was added onto each circle of agarose. Comet tail fluorescence intensity was quantified with a Diagnostic Instruments digitized camera, mounted on a Nikon Eclipse E400 microscope, using Scion Image software. Quantification of comet fluorescence was performed as described in P. J. McCarthy et al. (1997) Mutagenesis 12:209-214. Each data point was derived from 30 to 100 individual cells. The data are shown either in arbitrary fluorescent units, or as % DNA damage protection (i.e., the percent decrement in tail fluorescence intensity with test reagent, relative to the intensity recorded in cells treated with hydrogen peroxide only)±S.E.M.
# Specifically, […], human fibroblastoid M1 cells were incubated for thirty minutes in either H-89 or 8-bromoguanosine-3′,5′-cyclic monophosphate (8-Br-cGMP) (B), or for fifteen minutes in SNAP, at different concentrations. […] Following induction of oxidative stress, DNA damage was quantified using the Comet assay, as described above. Shown in FIGS. 14-16 are graphs illustrating the DNA damage protection as function of the molar concentration of H-89 (FIG. 14), 8-Br-cGMP (FIG. 15), and SNAP (FIG. 16).
# In yet another test, human fibroblastoid M1 cells were pre-incubated for fifteen minutes with different concentrations of the A2bAR antagonist, enprofylline (Enpro).
# [2] = tested on: human fibroblastoid M1 cells; assay: Comet assay, protection against H2O2-induced DNA damage; assay type: cell-based; conditions: M1 cells; for IC50: AR agonists and isoprenyls, 100 μM H2O2, Comet assay, read-out: IC50 (pM), DNA damage protection; for triggering of DNA damage protection: various concentrations, 100 μM H2O2
# Description: as §1, §2
# A dose response analysis of DNA damage protection also was performed to determine the efficacy of various doses of isopentenyl diphosphate versus 2-chloroadenosine. The analysis was carried out by pre-incubating human fibroblastoid M1 cells for thirty minutes with different concentrations of isopentenyl diphosphate or 2-chloroadenosine prior to incubating the cells with 100 μM H2O2 to induce oxidative stress. Following induction of oxidative stress, DNA damage was quantified using the Comet assay, as described above.
# [3] = tested on: A1AR-transfected HEK293 cells; assay: Comet assay in A1AR-transfected HEK293 cells; assay type: cell-based, human; conditions: A1AR-transfected HEK293 cells, 100 μM H2O2
# Description: A single-cell gel electrophoresis (SCGE) assay, known as the “Comer” assay was performed to detect/quantify DNA damage by identifying DNA-strand breakage in individual cells, for example. The assay was performed using a kit commercially-available from Trevigen, Inc., of Gaithersburg, Md., as “CometAssay™.” See P. J. McCarthy et al. (1997) Mutagenesis 12:209-214; A. R. Collins et al. (2001) Biochem. Soc. Trans. 29:337-341. Sub-confluent cells were washed with phosphate buffered saline (PBS) and detached from the tissue culture flasks using a 0.05% trypsin solution. After centrifugation, the cells were washed and re-suspended in serum-free DMEM medium. The cells were divided into Eppendorf tubes (1.5 ml), and centrifuged at 2500 rotations per minutes (rpm) for ten minutes. Signal-modulating agents were added and samples were kept in a 37° C. incubator for thirty minutes. In some experiments, the cells were pre-incubated with various inhibitors for the indicated times at 37° C. At the end of the incubation period with signal-modulating chemicals, the cells were washed with PBS and treated with 100 μM H2O2 in 0.5 ml PBS on ice for twenty minutes. Following the hydrogen peroxide treatment, the cells were immediately microfuged for fifteen seconds. The cells were twice washed with cold PBS, and re-suspended at 1.0×10^5 cells/ml in ice-cold PBS. […]
# The slides were placed at 4° C. in the dark for ten minutes and subsequently immersed in pre-chilled Lysis Solution at 4° C. for an additional thirty minutes. […] Comet tail fluorescence intensity was quantified with a Diagnostic Instruments digitized camera, mounted on a Nikon Eclipse E400 microscope, using Scion Image software. Quantification of comet fluorescence was performed as described in P. J. McCarthy et al. (1997) Mutagenesis 12:209-214. […] The data are shown either in arbitrary fluorescent units, or as % DNA damage protection (i.e., the percent decrement in tail fluorescence intensity with test reagent, relative to the intensity recorded in cells treated with hydrogen peroxide only)±S.E.M. […]
structure (smiles),measurement,setting,value
CC(=O)N[C@@H](C(=O)O)C(C)(C)SN=O (racemic) [SNAP],effect on 2CA-mediated DNA damage protection,[1],dose-dependent inhibition of 2CA-mediated antioxidative signal
"CC(C)=CCC/C(C)=C/CC/C(C)=C/CO[P@@](=O)(O)OP(=O)(O)O (stereo in doubt) [FPP, farnesyl diphosphate]",IC50,[2]; Homo sapiens,> 1e+07 pM
"Nc1ncnc2c1nc(Br)n2[C@@H]1O[C@@H]2COP(=O)(O)O[C@H]2[C@H]1O [8-Br-cAMP, 8-bromo adenosine 3′,5′-cyclic monophosphate]",DNA damage protection response,[3],responded efficiently
same,triggering of DNA damage protection,[2],produced similar protection against oxidative DNA damage
"Nc1nc2c(nc(Br)n2[C@@H]2O[C@@H]3COP(=O)(O)O[C@H]3[C@H]2O)c(=O)[nH]1 [8-Br-cGMP, 8-bromoguanosine-3′,5′-cyclic monophosphate]",effect on 2CA-mediated DNA damage protection,[1],dose-dependent inhibition of 2CA-mediated antioxidative signal
"CCNC(=O)[C@H]1O[C@@H](n2cnc3c(N)nc(NCCc4ccc(CCC(=O)O)cc4)nc32)[C@H](O)[C@@H]1O [CGS21680, 2-[p-2-(carbonyl-ethyl)-phenyethylamino]-5′-N-ethylcarboxaminoadenosine]",IC50,[2]; Homo sapiens,> 3e+07 pM
same,triggering of DNA damage protection,[2],failed to transduce the signal
"Cn1c(=O)c2c(nc(C=Cc3cccc(Cl)c3)n2C)n(C)c1=O [CSC, 8-(3-chlorostyryl) caffeine]",IC50,[1]; Homo sapiens,> 1e+07 pM
same,effect on 2CA-mediated DNA damage protection,[1],failed to block 2CA-mediated DNA damage protection
"CCCn1c(=O)c2[nH]c(C3CCCC3)nc2n(CCC)c1=O [DPCPX, [(3)H]1,3-dipropyl-8-cyclopentylxanthine]",IC50,[1],> 1e+07 pM
same,effect on 2CA-mediated DNA damage protection,[1],failed to block 2CA-mediated DNA damage protection
"CCCn1c(=O)[nH]c(=O)c2nc[nH]c21 [Enprofylline, enprofylline]",IC50,[1],1.8e+06 pM
same,effect on 2CA-mediated DNA damage protection,[1],effectively blocked the signal
same,effect on IPP-mediated DNA damage protection,[1],the IPP-mediated effect was resistant
COC(=O)[C@H](CCSC)NC(=O)c1ccc(NC[C@@H](N)CS)cc1-c1ccccc1 [FTI-277],effect on 2CA-mediated DNA damage protection,[1],Neither GGTI-2147 (FIG. 24B) nor FTI-277 (FIG. 25) had a significant effect
same,effect on IPP-mediated DNA damage protection,[1],had no effect on isopentenyl diphosphate activity
"CC(C)=CCC/C(C)=C/CC/C(C)=C/CC/C(C)=C/COP(=O)(O)OP(=O)(O)O [GGPP, geranylgeranyl diphosphate]",IC50,[2],660 pM
same,triggering of DNA damage protection,[2],effective in triggering antioxidative activity
COC(=O)[C@H](CC(C)C)NC(=O)c1ccc(NCc2cnc[nH]2)cc1-c1cccc2ccccc12 [GGTI-2147],effect on 2CA-mediated DNA damage protection,[1],Neither GGTI-2147 (FIG. 24B) nor FTI-277 (FIG. 25) had a significant effect
same,effect on IPP-mediated DNA damage protection,[1],effectively blocked IPP-mediated DNA damage protection
"O=S(=O)(NCCNCC=Cc1ccc(Br)cc1)c1cccc2cnccc12 [H-89, N-[2-(p-bromocynnamylamino)ethyl]-5-isoquinolinesulfonamide]",effect on 2CA-mediated DNA damage protection,[1],dose-dependent inhibition of 2CA-mediated antioxidative signal
same,effect on IPP-mediated DNA damage protection,[1],the IPP-mediated effect was resistant
"CNC(=O)[C@H]1O[C@@H](n2cnc3c(NCc4cccc(I)c4)ncnc32)[C@H](O)[C@@H]1O [IB-MECA, N6-(3-iodobenzyl)adenosine-5′-N-methyluronamide]",IC50,[2],> 1e+07 pM
same,triggering of DNA damage protection,[2],failed to transduce the signal
"C=C(C)CCOP(=O)(O)O [IMP, isopentenyl monophosphate]",IC50,[2],> 1e+07 pM
same,triggering of DNA damage protection,[2],failed to trigger antioxidative signaling
"CCNC(=O)C1OC(n2cnc3c(N)ncnc32)C(O)C1O (centres unmarked) [NECA, 5′-(N-ethylcarboxyamido)-adenosine]",IC50,[2],< 1000 pM
same,triggering of DNA damage protection,[2],triggered DNA damage protection
"CCCCC[C@H](O)/C=C/[C@H]1[C@H](O)CC(=O)[C@@H]1CCCCCCC(=O)O [PGE1, Prostaglandin E1]",triggering of DNA damage protection,[2],induction of resistance to oxidative DNA damage
"CCCn1c(=O)c2[nH]c(-c3ccc(OCC(=O)NCCN)cc3)nc2n(CCC)c1=O [XAC, xanthine amine congener]",IC50,[1],3.2e+06 pM
same,effect on 2CA-mediated DNA damage protection,[1],effectively blocked the signal
CC(=O)N[C@@H](CSC(=O)[C@]1([C@@H](O)C(C)C)NC(=O)[C@H](C)[C@@H]1O)C(=O)O [lactacystin],effect on 2CA-mediated DNA damage protection,[1],did not similarly block 2CA-mediated DNA damage protection signaling
same,effect on IPP-mediated DNA damage protection,[1],blocked IPP-mediated DNA damage protection signaling
CC[C@H](C)C(=O)O[C@H]1C[C@@H](C)C=C2C=C[C@H](C)[C@H](CC[C@@H]3C[C@@H](O)CC(=O)O3)[C@H]21 [lovastatin],effect on 2CA-mediated DNA damage protection,[1],did not similarly block 2CA-mediated DNA damage protection signaling
same,effect on IPP-mediated DNA damage protection,[1],completely blocked IPP-mediated DNA damage protection signaling
